# Data reported in US12448394B2, “Heterocyclic pyrazole derivatives as type III receptor tyrosine kinase inhibitors” (DEVELOPMENT CENTER FOR BIOTECHNOLOGY, priority 2019, dated 2025).
# Tests used:
# [1] = molecular target: T1, MET kinase (Homo sapiens, UniProt P08581); experiment: MET kinase assay (AlphaScreen, counter screen); format: biochemical; conditions: read-out: Ranking of IC50 values, MET
# T1 construct: purchased SignalChem
# How it was run: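 IC50 came from duplicate serial dilutions, with AlphaScreen detection of phosphorylated biotin-poly(Glu4:Tyr1). The reaction used 1 ng recombinant MET, 10 µM ATP […], and MOPS pH 7.0/MgCl2 buffer, ran 45 min at 30 °C, and was quenched with EDTA.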
# [2] = system: phosphorylation of FLT3 and its down-stream effector STAT5; experiment: Western blotting of p-FLT3 and p-STAT5 in MV4-11 cells; format: cell-based; conditions: Homo sapiens; at 30 nM treatment, 3 hours, FLT3-ITD positive MV4-11 leukemia cells; read-out: inhibition activity against phosphorylation of FLT3 and its down-stream effector STAT5
# How it was run: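 MV4-11 cells held overnight in IMDM with 0.1% FBS, then 3 million cells treated with compound for 3 h. Whole lysates immunoblotted for p-FLT3 (Tyr-591), p-STAT5 (Tyr-694) and actin. Band intensities at 30 nM compared to DMSO control; % inhibition = (1 − relative intensity) × 100.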
# [3] = molecular target: T2, FLT3 kinase (Homo sapiens, UniProt P36888); experiment: FLT3 kinase assay (AlphaScreen); format: biochemical; conditions: read-out: Ranking of IC50 values, FLT3
# T2 construct: purchased SignalChem
# T2 sequence (P36888 27-993): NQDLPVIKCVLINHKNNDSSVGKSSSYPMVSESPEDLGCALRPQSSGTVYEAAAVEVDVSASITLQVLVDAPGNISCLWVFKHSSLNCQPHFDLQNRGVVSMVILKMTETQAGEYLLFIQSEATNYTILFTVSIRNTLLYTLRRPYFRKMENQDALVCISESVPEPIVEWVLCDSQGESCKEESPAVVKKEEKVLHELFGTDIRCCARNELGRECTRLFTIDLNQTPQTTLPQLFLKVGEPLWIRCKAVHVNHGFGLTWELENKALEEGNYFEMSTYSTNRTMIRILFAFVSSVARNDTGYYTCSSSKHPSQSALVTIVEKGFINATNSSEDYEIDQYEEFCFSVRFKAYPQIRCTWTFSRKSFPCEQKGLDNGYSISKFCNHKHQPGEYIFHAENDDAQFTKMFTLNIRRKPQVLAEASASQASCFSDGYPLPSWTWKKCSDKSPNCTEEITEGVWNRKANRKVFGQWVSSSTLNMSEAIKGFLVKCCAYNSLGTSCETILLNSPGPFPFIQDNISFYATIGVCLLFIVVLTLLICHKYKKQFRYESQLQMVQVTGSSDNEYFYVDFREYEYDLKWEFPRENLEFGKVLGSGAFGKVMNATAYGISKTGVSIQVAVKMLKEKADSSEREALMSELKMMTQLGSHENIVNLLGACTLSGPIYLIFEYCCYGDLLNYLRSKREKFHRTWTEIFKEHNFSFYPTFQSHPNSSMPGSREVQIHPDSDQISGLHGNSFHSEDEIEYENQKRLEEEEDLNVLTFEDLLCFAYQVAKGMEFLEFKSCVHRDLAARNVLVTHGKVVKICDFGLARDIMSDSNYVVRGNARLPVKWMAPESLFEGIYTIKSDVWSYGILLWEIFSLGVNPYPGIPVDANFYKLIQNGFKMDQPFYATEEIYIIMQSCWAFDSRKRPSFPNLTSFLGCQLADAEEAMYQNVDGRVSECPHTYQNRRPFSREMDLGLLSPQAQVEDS
# How it was run: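 AlphaScreen detection of biotin-poly(Glu4:Tyr1) phosphorylation by 1.5 ng recombinant FLT3 (10 μM ATP, pH 7.0 MOPS, 10 mM MgCl2; 30 °C, 30 min, EDTA quench). IC50 values derived from serially diluted compound tested in duplicate.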
# T1 sequence (P08581 25-1390): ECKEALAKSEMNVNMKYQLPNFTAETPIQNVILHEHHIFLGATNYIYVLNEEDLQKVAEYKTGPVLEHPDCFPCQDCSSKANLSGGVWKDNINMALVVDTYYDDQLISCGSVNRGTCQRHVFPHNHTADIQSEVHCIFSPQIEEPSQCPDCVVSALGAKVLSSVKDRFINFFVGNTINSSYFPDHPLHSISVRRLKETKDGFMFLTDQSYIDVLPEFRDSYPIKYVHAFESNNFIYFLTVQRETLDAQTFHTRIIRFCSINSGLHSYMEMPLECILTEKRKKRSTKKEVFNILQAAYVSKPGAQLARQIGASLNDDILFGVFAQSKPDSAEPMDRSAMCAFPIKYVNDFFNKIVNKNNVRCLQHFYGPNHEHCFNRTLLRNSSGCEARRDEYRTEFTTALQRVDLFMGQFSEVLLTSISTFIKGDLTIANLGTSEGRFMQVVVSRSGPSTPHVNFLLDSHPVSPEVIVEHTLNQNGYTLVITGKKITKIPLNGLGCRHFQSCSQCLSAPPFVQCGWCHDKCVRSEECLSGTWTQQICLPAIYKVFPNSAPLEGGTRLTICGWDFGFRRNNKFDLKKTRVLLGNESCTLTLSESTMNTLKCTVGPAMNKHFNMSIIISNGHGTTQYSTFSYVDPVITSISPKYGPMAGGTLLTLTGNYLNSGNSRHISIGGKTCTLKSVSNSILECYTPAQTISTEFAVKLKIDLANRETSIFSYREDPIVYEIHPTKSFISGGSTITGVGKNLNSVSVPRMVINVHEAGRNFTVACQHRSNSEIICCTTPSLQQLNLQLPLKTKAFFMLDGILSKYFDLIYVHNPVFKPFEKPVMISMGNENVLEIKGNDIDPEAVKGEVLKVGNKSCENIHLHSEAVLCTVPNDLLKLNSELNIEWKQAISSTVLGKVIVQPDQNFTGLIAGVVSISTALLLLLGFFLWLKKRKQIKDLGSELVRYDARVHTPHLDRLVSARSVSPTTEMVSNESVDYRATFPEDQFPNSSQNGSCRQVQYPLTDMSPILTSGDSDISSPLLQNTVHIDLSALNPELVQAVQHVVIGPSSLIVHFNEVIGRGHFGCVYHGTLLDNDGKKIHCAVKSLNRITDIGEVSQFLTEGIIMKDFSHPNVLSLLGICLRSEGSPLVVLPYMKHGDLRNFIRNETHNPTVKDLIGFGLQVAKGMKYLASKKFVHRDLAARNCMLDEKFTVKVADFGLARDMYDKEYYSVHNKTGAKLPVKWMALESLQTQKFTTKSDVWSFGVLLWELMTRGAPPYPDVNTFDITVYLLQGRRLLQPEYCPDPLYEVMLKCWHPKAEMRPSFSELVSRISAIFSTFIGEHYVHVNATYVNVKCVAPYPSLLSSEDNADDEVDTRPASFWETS
IC50 [1] [nM],IC50 [3] [nM],SMILES,inhibition at 0.03 µM [2] [%]
> 1000,–,"COc1ccc(-c2cc3c(s2)Cc2c(-c4ccc5[nH]ncc5c4)n[nH]c2-3)cn1 [Compound 1, 3-(1H-indazol-5-yl)-6-(6-methoxypyridin-3-yl)-1,4-dihydrothieno[2′,3′:4,5] cyclopenta[1,2-c]pyrazole]",> 50
> 1000,–,"COc1ccc(-c2cc3c(s2)Cc2c(-c4ccc5cn[nH]c5c4)n[nH]c2-3)cn1 [Compound 2, 3-(1H-indazol-6-yl)-6-(6-methoxypyridin-3-yl)-1,4-dihydrothieno[2′,3′:4,5] cyclopenta[1,2-c]pyrazole]",> 50
> 1000,–,"Nc1ccc(-c2cc3c(s2)Cc2c(-c4ccc5cn[nH]c5c4)n[nH]c2-3)cn1 [Compound 3, 5-(3-(1H-indazol-6-yl)-1,4-dihydrothieno[2′,3′:4,5]cyclopenta[1,2-c]pyrazol-6-yl)pyridin-2-amine]",> 50
> 1000,1 to 10,"COc1ccc(-c2cc3c(s2)Cc2c(-c4ccc5cnn(C)c5c4)n[nH]c2-3)cn1 [Compound 4, 6-(6-methoxypyridin-3-yl)-3-(1-methyl-1H-indazol-6-yl)-1,4-dihydrothieno [2′,3′:4,5]cyclopenta[1,2-c] pyrazole]",–
> 1000,–,"Cc1ccc(-c2cc3c(s2)Cc2c(-c4ccc5cn[nH]c5c4)n[nH]c2-3)cn1 [Compound 30, 3-(1H-indazol-6-yl)-6-(6-methylpyridin-3-yl)-1,4-dihydrothieno[2′,3′:4,5] cyclopenta[1,2-c]pyrazole]",> 50
> 1000,–,"Cc1ccc(-c2cc3c(s2)Cc2c(-c4ccc5[nH]ncc5c4)n[nH]c2-3)cn1 [Compound 36, 3-(1H-indazol-5-yl)-6-(6-methylpyridin-3-yl)-1,4-dihydrothieno[2′,3′:4,5] cyclopenta[1,2-c]pyrazole]",> 50
> 1000,–,"Nc1ccc(-c2cc3c(s2)Cc2c(-c4ccc5[nH]ncc5c4)n[nH]c2-3)cn1 [Compound 40, 5-(3-(1H-indazol-5-yl)-1,4-dihydrothieno [2′,3′:4,5]cyclopenta [1,2-c]pyrazol-6-yl) pyridin-2-amine]",> 50
> 1000,–,"Cn1ncc2ccc(-c3n[nH]c4c3Cc3sc(-c5ccc(CN6CCOC6=O)cc5)cc3-4)cc21 [Compound 62, 3-(4-(3-(1-methyl-1H-indazol-6-yl)-1,4-dihydro-thieno[2′,3′:4,5]cyclopenta [1,2-c]pyrazol-6-yl)benzyl)oxazolidin-2-one]",> 50
> 1000,1 to 10,"Cc1n[nH]c2cc(-c3n[nH]c4c3Cc3sc(-c5ccc(CN6CCOCC6)cc5)cc3-4)ccc12 [Compound 81, 4-(4-(3-(3-methyl-1H-indazol-6-yl)-1,4-dihydro-thieno[2′,3′:4,5]cyclopenta [1,2-c]pyrazol-6-yl)benzyl)morpholine]",–
> 1000,1 to 10,"Cn1ncc2ccc(-c3n[nH]c4c3Cc3sc(-c5ccc(N6CCOCC6)nc5)cc3-4)cc21 [Compound 82, 4-(5-(3-(1-methyl-1H-indazol-6-yl)-1,4-dihydro-thieno[2′,3′:4,5]cyclopenta [1,2-c]pyrazol-6-yl)pyridin-2-yl)morpholine]",–
300 to 1000,< 1,"CN1CCN(Cc2ccc(-c3cc4c(s3)Cc3c(-c5ccc6cn[nH]c6c5)n[nH]c3-4)cc2)CC1 [Compound 83, 3-(1H-indazol-6-yl)-6-(4-((4-methylpiperazin-1-yl)methyl)phenyl)-1,4-dihydrothieno[2′,3′:4,5] cyclopenta[1,2-c]pyrazole]",> 50
> 1000,< 1,"CN1CCN(Cc2ccc(-c3cc4c(s3)Cc3c(-c5ccc6cnn(C)c6c5)n[nH]c3-4)cc2)CC1 [Compound 84, 3-(1-methyl-1H-indazol-6-yl)-6-(4-((4-methylpiperazin-1-yl)methyl)phenyl)-1,4-dihydrothieno [2′,3′:4,5]cyclopenta [1,2-c]pyrazole]",> 50
300 to 1000,< 1,"CN1CCN(c2ccc(-c3cc4c(s3)Cc3c(-c5ccc6cnn(C)c6c5)n[nH]c3-4)cn2)CC1 [Compound 85, 3-(1-methyl-1H-indazol-6-yl)-6-(6-(4-methyl-piperazin-1-yl)pyridin-3-yl)-1,4-dihydrothieno [2′,3′:4,5]cyclopenta [1,2-c]pyrazole]",–
> 1000,1 to 10,"Cn1ncc2ccc(-c3n[nH]c4c3Cc3sc(-c5ccnc(Cl)c5)cc3-4)cc21 [Compound 86, 6-(2-chloropyridin-4-yl)-3-(1-methyl-1H-indazol-6-yl)-1,4-dihydrothieno [2′,3′:4,5]cyclopenta [1,2-c]pyrazole]",–
300 to 1000,< 1,"CN1CCN(c2cc(-c3cc4c(s3)Cc3c(-c5ccc6cnn(C)c6c5)n[nH]c3-4)ccn2)CC1 [Compound 87, 3-(1-methyl-1H-indazol-6-yl)-6-(2-(4-methyl-piperazin-1-yl)pyridin-4-yl)-1,4-dihydrothieno [2′,3′:4,5]cyclopenta [1,2-c]pyrazole]",–
> 1000,1 to 10,"Cn1ncc2ccc(-c3n[nH]c4c3Cc3sc(-c5ccc(CN6CCOCC6)c(F)c5F)cc3-4)cc21 [Compound 88, 4-(2,3-difluoro-4-(3-(1-methyl-1H-indazol-6-yl)-1,4-dihydrothieno [2′,3′:4,5]cyclopenta [1,2-c]pyrazol-6-yl)benzyl)morpholine]",–
> 1000,1 to 10,"Cn1nnc2ccc(-c3n[nH]c4c3Cc3sc(-c5ccc(CN6CCOCC6)cc5)cc3-4)cc21 [Compound 89, 4-(4-(3-(1-methyl-1H-benzo[d][1,2,3]triazol-6-yl)-1,4-dihydrothieno [2′,3′:4,5]cyclopenta [1,2-c]pyrazol-6-yl)benzyl)morpholine]",> 50
> 1000,1 to 10,"Cn1ncc2ccc(-c3n[nH]c4c3Cc3sc(-c5ccc(CN6CCOCC6)cc5OC(F)(F)F)cc3-4)cc21 [Compound 90, 4-(4-(3-(1-methyl-1H-indazol-6-yl)-1,4-dihydro-thieno[2′,3′:4,5]cyclopenta [1,2-c]pyrazol-6-yl)-3-(trifluoromethoxy)benzyl) morpholine]",–
> 1000,1 to 10,"Cc1cc(CN2CCOCC2)ccc1-c1cc2c(s1)Cc1c(-c3ccc4cnn(C)c4c3)n[nH]c1-2 [Compound 91, 4-(3-methyl-4-(3-(1-methyl-1H-indazol-6-yl)-1,4-dihydrothieno [2′,3′:4,5]cyclopenta [1,2-c]pyrazol-6-yl)benzyl)morpholine]",–
> 1000,1 to 10,"CN(C)Cc1ccc(-c2cc3c(s2)Cc2c(-c4ccc5cnn(C)c5c4)n[nH]c2-3)cn1 [Compound 93, N,N-dimethyl-1-(5-(3-(1-methyl-1H-indazol-6-yl)-1,4-dihydrothieno [2′,3′:4,5]cyclopenta [1,2-c]pyrazol-6-yl)pyridin-2-yl)methanamine]",–
> 1000,–,"Cn1ncc2ccc(-c3n[nH]c4c3Cc3sc(-c5ccc(CN6CCNCC6=O)cc5)cc3-4)cc21 [Compound 101, 1-(4-(3-(1-methyl-1H-indazol-6-yl)-1,4-dihydro-thieno[2′,3′:4,5]cyclopenta [1,2-c]pyrazol-6-yl)benzyl)piperazin-2-one]",> 50
